US20230284994A1, “PET-CT IMAGING METHODS, CONTRAST AGENTS AND PHARMACEUTICAL COMPOSITIONS FOR USE IN SAID IMAGING METHODS” (ADIPOSS SÁRL, priority 2020, published 2023)

Experiments:
[1] = system: brown adipose tissue; assay: 18FDG PET-CT scan for brown adipose tissue in syngeneic B16F10 melanoma mouse model, confirmed by necropsy; format: in vivo, C57B1/6 mice; conditions: 12 scans (six with, six without contrast agent); based on 18FDG uptake or on uptake of PET-CT contrast agent
Protocol: Syngeneic mouse melanoma model (with tumor metastases dissemination to the lungs) was induced by intravenous injection of B16F10 murine melanoma cancer cells in C57B1/6 mice. 19 days after cells injection, the animals were administered with ^18FDG and a PET-CT scan was performed on each animal. One day later, the PET-CT contrast agent was administered via oral route to the same animals. Then, a second ^18FDG PET-CT scan was performed. In total, 12 ^18FDG PET-CT scans were performed (six with and six without the PET-CT contrast agent). The animals were then euthanized and necropsy was performed. Assessment of the PET-CT scans for absence of ^18FDG uptake but presence of contrast enhancement due to the PET-CT contrast agent allowed easy and robust detection of brown adipose tissue, increasing the sensitivity and positive predictive value of the PET-CT scan or BAT. In total, ^18FDG uptake in BAT was present in nine out of 12 PET-CT scans. However, all mice had BAT. Based on ^18FDG uptake, the sensitivity of the PET-CT scan for BAT was 75% (FIG. 5). Based on the uptake of the PET-CT contrast agent, the sensitivity for BAT was 100%. Using the PET-CT contrast agent, the sensitivity of the PET-CT scan for BAT in mice was thus improved by 25%.

[2] = system: tumour metastases; assay: 18FDG PET-CT scan for metastases in syngeneic B16F10 melanoma mouse model, necropsy as standard of truth; format: in vivo, C57B1/6 mice; conditions: six mice, 24 metastases by necropsy; scan without (18FDG only) or with oral PET-CT contrast agent
Protocol: Syngeneic mouse melanoma model (with tumor metastases dissemination to the lungs) was induced by intravenous injection of B16F10 murine melanoma cancer cells in C57B1/6 mice. 19 days after cells injection, the animals were administered with ^18FDG and a PET-CT scan was performed on each animal. One day later, the PET-CT contrast agent was administered via oral route to the same animals. Then, a second ^18FDG PET-CT scan was performed. The animals were then euthanized and necropsy was performed on each animal. Assessment of the PET-CT scans for co-localization of positive contrast enhancement of ^18FDG and PET-CT contrast agent allowed discriminating metastases from brown adipose tissue (FIGS. 2a and 3a). The ^18FDG signals present in BAT, that could be interpreted as false positives (metastases), were correctly attributed to BAT, improving the specificity and positive predictive value of the PET-CT scan for tumour metastases. This was confirmed by necropsy (FIGS. 2b, c and 3b, c). In total, based on necropsy (standard of truth), the six mice presented 24 metastases (four per mouse on average). […] Without the PET-CT contrast agent, the positive predictive value PPV of the ^18FDG PET-CT scan for metastases was 85% (FIG. 4). By using the PET-CT contrast agent, the PPV was 100%. The CT contrast agent thus improves the PPV of the ^18FDG PET-CT scan by 15%.

SMILES: O=C[C@H]([18F])[C@@H](O)[C@H](O)[C@H](O)CO [^18FDG, 2-[fluorine-18]fluoro-2-deoxy-D-glucose]
- sensitivity of the 18FDG PET-CT scan for BAT [1]: 75%
- positive predictive value PPV of the 18FDG PET-CT scan for metastases [2]: 85%
